Laboratory results published in paper PMC4664966, “Discovery and characterization of novel inhibitors of the sodium-coupled citrate transporter (NaCT or SLC13A5)” (Scientific Reports, 2015).

Tests used:
NaDC3 (SLC13A3) = target: T1, NaDC3 (SLC13A3) (Homo sapiens, UniProt Q8WWT9); assay: Inhibition of citrate or succinate uptake in HEKNaDC3 cells; assay type: cell-based
T1 construct: host or cells: HEK-293, transient (Fugene HD)
T1 sequence (Q8WWT9 1-602): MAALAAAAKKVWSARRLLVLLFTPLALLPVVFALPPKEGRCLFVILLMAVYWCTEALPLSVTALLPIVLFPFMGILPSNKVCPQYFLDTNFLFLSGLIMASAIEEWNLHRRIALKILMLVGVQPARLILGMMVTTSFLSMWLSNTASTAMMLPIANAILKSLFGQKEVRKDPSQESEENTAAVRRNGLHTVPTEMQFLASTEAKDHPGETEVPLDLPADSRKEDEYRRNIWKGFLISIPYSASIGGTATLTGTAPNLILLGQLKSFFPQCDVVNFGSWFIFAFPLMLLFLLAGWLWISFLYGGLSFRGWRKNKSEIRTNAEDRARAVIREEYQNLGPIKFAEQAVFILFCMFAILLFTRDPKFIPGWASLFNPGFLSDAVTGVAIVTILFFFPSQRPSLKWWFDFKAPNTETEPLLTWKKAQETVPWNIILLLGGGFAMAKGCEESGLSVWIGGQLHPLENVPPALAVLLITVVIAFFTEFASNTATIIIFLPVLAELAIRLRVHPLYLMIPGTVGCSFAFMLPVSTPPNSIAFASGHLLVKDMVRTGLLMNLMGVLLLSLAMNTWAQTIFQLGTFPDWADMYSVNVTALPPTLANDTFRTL
Excerpt: Protocols to generate the stable cell line overexpressing NaCT or cell transfection with SLC13A2 or SLC13A3 can be found in the supporting information. HEK-293 cells stably transfected with the human sodium Citrate transporter SLC13A5 or transiently transfected with the human SLC13A2 or SLC13A3 transporter were removed from the flasks with dissociation buffer and re-suspended in an equal volume of growth media (DMEM, High Glucose supplemented with 10% heat inactivated fetal bovine serum and 500 μg/ml Geneticin). For the transient transfections, Geneticin was eliminated from the media. Cell suspensions were centrifuged at 1,000 rpm for approximately 5 minutes. Resulting cell pellets were re-suspended in growth media and placed in a 37 °C water bath for approximately 10 minutes prior to a final spin at 1,000 rpm. Following this spin the resulting cell pellets were re-suspended in assay buffer, 142 mM NaCl (or 142 mM choline chloride), 5 mM KCl, 1.2 mM MgSO4, 1.5 mM CaCl, 5 mM glucose and 25 mM HEPES pH 7.4. Cell suspensions were counted and the concentration adjusted as needed with assay buffer to 2e[6] viable cells /mL. 20 μL of cell suspension were added to 384-well cyotstar-T plates followed by the addition of 5 μL of 10× concentration of compound. Cells and compound were incubated at 37 °C for approximately 30 minutes prior to the addition of 25 μL of 300 μM citric acid (16 μM radiolabeled [^14C]-citric acid and 284 μM cold citric acid) to make a 150 μM final concentration of citric acid or 21 μM [^14C]-succinic acid. After substrate addition, the uptake of radioactivity was monitored on Perkin Elmer Microbeta plate reader. Data from reads between 45–90 minutes was used to assess the ability of test compounds to inhibit the uptake of citric or succinic acid. […]
were plated, and incubated for 48 hours. Following the incubation, NaDC1 and NaDC3 assays were executed identical to the procedure for NaCT. […]
The solution was heated to reflux until the total volume was reduced to ~25 mL. […]

HEKNaCT cells = assay: OCR and ECAR measurements in HEKNaCT cells incubated with citrate (Seahorse); assay type: cell-based, human; settings: 30 μM compound
Method: HEKNaCT cells were plated at 12,000 cells/well onto a poly-d-lysine coated XF96 plate (Sigma, Seahorse Biosciences). Cells were plated in culture media containing HG DMEM, 10% FBS, 2 mM glutamine, 1 mM pyruvate, 0.5 mg/mL Geneticin, and 1% penicillin/streptomycin (Life Technologies) and incubated overnight at 37 °C. The following day, the media was changed to Seahorse Biosciences assay medium (Seahorse Biosciences) supplemented with 10 mM glucose and 2 mM pyruvate (Sigma). The plate was pre-incubated for 1 hour in a 37 °C air incubator. […]

[1] = target: Acetylcholinesterase (ACHE) (Homo sapiens, UniProt P22303); assay: Selectivity data (Table S1); assay type: biochemical
[2] = target: Monoamine oxidase A (MAOA) (Homo sapiens, UniProt P21397); assay: Selectivity data (Table S1); assay type: biochemical
[3] = target: Phosphodiesterase 4D (PDE4D) (Homo sapiens, UniProt Q08499); assay: Selectivity data (Table S1); assay type: biochemical
[4] = target: Choline transporter (CHT1) (SLC5A7) (Homo sapiens, UniProt Q9GZV3); assay: Selectivity data (Table S1)
[5] = target: Dopamine transporter, sodium-dependent (DAT) (Homo sapiens, UniProt Q01959); assay: Selectivity data (Table S1)
[6] = target: Human ether-a-go-go (hERG) (Homo sapiens, UniProt Q12809); assay: Selectivity data (Table S1)
[7] = target: Serotonin transporter, sodium-dependent (5-HTT) (Homo sapiens, UniProt P31645); assay: Selectivity data (Table S1)
Androgen receptor = Androgen receptor (Homo sapiens, UniProt P10275); assay: Selectivity data (Table S1); assay type: binding
[8] = target: Angiotensin II receptor type 1 (AGTR1) (Homo sapiens, UniProt P30556); assay: Selectivity data (Table S1); assay type: binding
Dopamine receptor 2 (D2) = Dopamine receptor 2 (D2) (Homo sapiens, UniProt P14416); assay: Selectivity data (Table S1); assay type: binding
[9] = target: Histamine receptor 1 (H1) (Homo sapiens, UniProt P35367); assay: Selectivity data (Table S1); assay type: binding
[10] = target: Opioid receptor, mu (MOP) (Homo sapiens, UniProt P35372); assay: Selectivity data (Table S1); assay type: binding
[11] = target: Serotonin receptor 1A (5-HT1A) (Homo sapiens, UniProt P08908); assay: Selectivity data (Table S1); assay type: binding

Chain of Human ether-a-go-go (hERG) (Q12809 whole entry): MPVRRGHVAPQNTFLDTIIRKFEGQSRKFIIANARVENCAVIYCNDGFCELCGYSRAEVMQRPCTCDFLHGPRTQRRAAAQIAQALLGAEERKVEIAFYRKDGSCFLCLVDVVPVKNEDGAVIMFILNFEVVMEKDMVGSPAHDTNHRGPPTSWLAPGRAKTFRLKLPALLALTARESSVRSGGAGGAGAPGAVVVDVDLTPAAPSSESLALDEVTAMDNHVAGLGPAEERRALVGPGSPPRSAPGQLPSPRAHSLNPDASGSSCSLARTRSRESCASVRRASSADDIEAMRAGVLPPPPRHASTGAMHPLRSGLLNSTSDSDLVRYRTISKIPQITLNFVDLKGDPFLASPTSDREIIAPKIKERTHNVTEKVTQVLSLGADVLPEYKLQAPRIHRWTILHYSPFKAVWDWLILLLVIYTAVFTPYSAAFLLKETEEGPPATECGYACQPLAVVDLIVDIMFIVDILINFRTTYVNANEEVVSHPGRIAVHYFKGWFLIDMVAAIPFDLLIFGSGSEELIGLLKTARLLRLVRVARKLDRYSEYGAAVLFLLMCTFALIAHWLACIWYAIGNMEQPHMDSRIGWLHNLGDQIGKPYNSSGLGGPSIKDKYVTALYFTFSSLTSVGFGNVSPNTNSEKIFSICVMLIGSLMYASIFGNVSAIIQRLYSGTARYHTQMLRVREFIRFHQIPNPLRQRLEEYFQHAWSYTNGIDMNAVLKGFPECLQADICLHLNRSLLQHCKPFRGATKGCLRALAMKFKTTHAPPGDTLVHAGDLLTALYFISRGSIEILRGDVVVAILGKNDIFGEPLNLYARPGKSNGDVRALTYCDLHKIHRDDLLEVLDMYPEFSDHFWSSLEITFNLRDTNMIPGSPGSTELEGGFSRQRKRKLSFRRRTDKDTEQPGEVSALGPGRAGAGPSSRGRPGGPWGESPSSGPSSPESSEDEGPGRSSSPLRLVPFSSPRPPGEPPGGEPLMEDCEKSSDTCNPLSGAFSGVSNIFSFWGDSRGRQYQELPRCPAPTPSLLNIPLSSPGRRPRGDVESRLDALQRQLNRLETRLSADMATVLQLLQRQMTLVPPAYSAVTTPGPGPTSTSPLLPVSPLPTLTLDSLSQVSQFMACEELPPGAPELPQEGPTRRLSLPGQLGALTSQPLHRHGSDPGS
Chain of Dopamine receptor 2 (D2) (P14416 whole entry): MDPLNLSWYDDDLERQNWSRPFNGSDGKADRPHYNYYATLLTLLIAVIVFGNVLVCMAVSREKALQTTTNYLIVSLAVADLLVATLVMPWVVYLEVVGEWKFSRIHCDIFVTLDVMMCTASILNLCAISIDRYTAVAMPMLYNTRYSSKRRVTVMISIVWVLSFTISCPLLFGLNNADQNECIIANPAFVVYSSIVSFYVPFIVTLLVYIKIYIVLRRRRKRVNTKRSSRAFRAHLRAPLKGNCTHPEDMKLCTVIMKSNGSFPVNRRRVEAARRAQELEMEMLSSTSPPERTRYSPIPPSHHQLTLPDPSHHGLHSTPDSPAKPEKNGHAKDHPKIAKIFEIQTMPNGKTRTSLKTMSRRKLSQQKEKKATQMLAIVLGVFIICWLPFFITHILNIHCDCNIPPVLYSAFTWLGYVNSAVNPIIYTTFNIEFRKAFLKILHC
Chain of Androgen receptor (P10275 whole entry): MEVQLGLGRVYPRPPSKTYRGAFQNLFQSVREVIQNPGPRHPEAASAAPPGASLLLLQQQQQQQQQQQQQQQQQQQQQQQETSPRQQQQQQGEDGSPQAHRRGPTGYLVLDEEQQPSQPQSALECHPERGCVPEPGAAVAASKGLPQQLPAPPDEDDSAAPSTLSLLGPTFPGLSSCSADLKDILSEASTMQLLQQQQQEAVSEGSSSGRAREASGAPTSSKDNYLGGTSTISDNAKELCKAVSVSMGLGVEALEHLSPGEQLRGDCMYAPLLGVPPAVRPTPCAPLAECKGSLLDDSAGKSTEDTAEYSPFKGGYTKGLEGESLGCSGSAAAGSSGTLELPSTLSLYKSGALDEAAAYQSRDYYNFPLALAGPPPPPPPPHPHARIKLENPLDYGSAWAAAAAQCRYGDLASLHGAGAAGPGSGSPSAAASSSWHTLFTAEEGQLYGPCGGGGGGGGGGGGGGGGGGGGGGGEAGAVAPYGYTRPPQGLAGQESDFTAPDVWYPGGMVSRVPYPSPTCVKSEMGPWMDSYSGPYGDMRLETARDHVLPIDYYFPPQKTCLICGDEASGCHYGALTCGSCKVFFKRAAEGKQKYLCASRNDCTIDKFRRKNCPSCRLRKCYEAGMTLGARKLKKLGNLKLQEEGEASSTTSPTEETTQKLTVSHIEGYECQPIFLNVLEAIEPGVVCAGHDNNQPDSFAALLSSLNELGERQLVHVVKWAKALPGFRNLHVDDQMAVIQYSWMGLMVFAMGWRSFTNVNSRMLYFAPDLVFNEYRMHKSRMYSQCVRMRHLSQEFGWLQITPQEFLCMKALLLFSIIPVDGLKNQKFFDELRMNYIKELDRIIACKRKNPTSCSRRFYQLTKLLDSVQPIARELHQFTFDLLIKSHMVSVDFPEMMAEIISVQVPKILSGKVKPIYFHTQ
Chain of Opioid receptor, mu (MOP) (P35372 whole entry): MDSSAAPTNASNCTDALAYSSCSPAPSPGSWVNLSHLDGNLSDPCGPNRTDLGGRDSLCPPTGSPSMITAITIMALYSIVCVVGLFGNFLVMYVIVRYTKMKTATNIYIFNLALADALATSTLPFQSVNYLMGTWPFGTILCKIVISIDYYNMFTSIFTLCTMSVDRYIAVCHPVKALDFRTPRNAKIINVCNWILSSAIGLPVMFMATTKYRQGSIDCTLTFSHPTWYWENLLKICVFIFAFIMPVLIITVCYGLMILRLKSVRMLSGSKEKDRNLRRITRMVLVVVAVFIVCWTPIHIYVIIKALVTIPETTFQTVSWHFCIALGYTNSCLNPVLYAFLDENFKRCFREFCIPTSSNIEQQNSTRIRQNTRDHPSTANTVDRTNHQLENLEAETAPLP
Chain of Angiotensin II receptor type 1 (AGTR1) (P30556 whole entry): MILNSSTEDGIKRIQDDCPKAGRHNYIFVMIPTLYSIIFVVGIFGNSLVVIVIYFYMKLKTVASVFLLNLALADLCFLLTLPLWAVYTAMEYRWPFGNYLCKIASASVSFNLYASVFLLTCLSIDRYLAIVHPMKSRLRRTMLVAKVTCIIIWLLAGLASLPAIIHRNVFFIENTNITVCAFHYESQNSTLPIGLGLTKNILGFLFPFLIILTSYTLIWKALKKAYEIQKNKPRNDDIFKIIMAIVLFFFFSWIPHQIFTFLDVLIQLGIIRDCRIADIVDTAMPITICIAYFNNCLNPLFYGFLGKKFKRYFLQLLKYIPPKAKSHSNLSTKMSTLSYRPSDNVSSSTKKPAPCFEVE
Chain of Acetylcholinesterase (ACHE) (P22303 32-614): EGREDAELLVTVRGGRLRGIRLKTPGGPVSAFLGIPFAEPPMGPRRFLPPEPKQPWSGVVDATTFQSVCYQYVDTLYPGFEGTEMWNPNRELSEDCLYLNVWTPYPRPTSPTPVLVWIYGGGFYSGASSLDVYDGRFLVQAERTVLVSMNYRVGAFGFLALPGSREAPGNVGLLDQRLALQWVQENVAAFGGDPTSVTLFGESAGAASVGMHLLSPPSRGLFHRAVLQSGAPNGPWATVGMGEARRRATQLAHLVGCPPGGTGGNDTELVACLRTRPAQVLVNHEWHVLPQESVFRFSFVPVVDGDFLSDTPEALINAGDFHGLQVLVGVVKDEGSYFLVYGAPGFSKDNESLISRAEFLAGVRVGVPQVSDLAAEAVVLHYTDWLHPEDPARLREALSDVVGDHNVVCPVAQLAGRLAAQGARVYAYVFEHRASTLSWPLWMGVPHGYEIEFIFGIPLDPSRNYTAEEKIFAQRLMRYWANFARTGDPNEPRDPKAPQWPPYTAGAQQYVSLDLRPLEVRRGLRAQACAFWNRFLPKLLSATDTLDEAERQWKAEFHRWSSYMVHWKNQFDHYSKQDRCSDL
Chain of Histamine receptor 1 (H1) (P35367 whole entry): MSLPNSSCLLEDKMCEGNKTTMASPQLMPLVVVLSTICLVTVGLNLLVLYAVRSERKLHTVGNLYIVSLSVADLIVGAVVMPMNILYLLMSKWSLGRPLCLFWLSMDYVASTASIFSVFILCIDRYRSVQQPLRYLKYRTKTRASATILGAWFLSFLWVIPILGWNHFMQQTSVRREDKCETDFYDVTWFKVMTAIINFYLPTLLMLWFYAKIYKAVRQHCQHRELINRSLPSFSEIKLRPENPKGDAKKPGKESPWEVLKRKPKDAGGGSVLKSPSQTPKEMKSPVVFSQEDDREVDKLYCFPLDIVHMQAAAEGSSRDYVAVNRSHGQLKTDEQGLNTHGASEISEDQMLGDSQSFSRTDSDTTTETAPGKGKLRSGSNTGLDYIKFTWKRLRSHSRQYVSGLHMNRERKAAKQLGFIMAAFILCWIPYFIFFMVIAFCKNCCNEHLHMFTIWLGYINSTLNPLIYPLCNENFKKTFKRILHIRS
Chain of Choline transporter (CHT1) (SLC5A7) (Q9GZV3 whole entry): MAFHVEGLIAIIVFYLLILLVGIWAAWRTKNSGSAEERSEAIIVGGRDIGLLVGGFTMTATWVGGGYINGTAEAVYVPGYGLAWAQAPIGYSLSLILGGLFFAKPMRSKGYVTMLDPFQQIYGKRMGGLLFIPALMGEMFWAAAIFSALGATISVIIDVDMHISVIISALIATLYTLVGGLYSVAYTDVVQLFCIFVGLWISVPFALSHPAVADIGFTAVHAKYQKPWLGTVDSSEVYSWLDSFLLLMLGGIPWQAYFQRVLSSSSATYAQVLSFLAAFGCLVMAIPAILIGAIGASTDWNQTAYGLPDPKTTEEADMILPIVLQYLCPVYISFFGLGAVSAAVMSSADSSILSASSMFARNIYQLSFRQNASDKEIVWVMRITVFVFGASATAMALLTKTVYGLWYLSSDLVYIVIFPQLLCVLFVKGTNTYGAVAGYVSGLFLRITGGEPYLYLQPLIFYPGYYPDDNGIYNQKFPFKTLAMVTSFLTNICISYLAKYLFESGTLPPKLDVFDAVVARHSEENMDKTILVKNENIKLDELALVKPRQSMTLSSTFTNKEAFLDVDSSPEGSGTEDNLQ

CC(C)(C)c1ccc(CC[C@@](O)(CC(=O)O)C(=O)O)cc1 [Compound 2]
inhibition of citrate or succinate uptake, NaDC3 (NaDC3 (SLC13A3); HEK-293-derived system overexpressing NaDC3): No measurable inhibition
IC50 (NaDC3 (SLC13A3); compound 4: mean of 2 replicates): > 100 µM
effect on citrate induced increase in oxygen consumption rate (OCR) (HEKNaCT cells): prevented citrate induced increase in mitochondrial respiration
effect on citrate suppressed extracellular acidification rate (ECAR) (HEKNaCT cells; citrate): restored
inhibition at 100 µM [1]: < 10%
inhibition at 100 µM [2]: < 10%
inhibition at 100 µM [3]: < 10%
inhibition at 100 µM [4]: < 10%
inhibition at 100 µM [5]: < 10%
IC50 [6]: > 100 µM
interaction/inhibition of the hERG channel [6]: no significant interaction/inhibition
inhibition at 100 µM [7]: < 10%
inhibition at 100 µM (Androgen receptor): < 10%
inhibition at 100 µM [8]: < 10%
inhibition at 100 µM (Dopamine receptor 2 (D2)): < 10%
inhibition at 100 µM [9]: < 10%
inhibition at 100 µM [10]: < 10%
inhibition at 100 µM [11]: < 10%
